Source: US9090640B2, “Targeted delivery and prodrug designs for platinum-acridine anti-cancer compounds and methods thereof” (priority 2011, dated 2015)

Key:
[1] = tested on: MDA-MB-231 (triple-negative breast); experiment: Colorimetric cell proliferation assay in MDA-MB-231; type: cell-based; conditions: 72-h incubations performed in triplicate
OVCAR-3 (ovarian) = experiment: Colorimetric cell proliferation assay in OVCAR-3; type: cell-based; conditions: 72-h incubations performed in triplicate
PANC-1 (pancreatic) = experiment: Colorimetric cell proliferation assay in PANC-1; type: cell-based; conditions: 72-h incubations performed in triplicate
NCI-H460 = experiment: Cytotoxicity (cell proliferation) assay in NCI-H460; type: cell-based, human
Experimental: Cytotoxicity Assay. Cytotoxicity studies were carried out according to a standard protocol (Guddneppanavar et al. 2006) using the Celltiter 96 Aqueous Non-Radioactive Cell Proliferation Assay kit (Promega, Madison, Wis.). Stock solutions of 11, 14a, and 14b were prepared in phosphate-buffered saline (PBS) and serially diluted with media prior to incubation with cancer cells. IC50 values were calculated from non-linear curve fits using a sigmoidal dose-response equation in GraphPad Prism (GraphPad Software, La Jolla, Calif.). […]
Cell Proliferation Assay. Cell viability was assessed using the CellTiter 96 Aqueous Non-Radioactive Cell Proliferation Assay (Promega, Madison. Wis., USA) as described previously. […] The absorbance of tetrazolium dye was measured at 490) nm using a plate reader. The fraction of viable cells was calculated as a percentage of untreated control and is reported as the mean±standard deviation for 3 incubations of each compound. IC50 values were calculated from non-linear curve fits using a sigmoidal dose-response equation in GraphPad Prism (GraphPad Software, La Jolla, Calif.) and are averages of two individual experiments performed in triplicate. […]

MCF-7 (ER + breast) = experiment: Colorimetric cell proliferation assay in MCF-7; type: cell-based; conditions: 72-h incubations performed in triplicate

**Q.** What does the source list for `N.N.[Cl][Pt][Cl]` [cispiatin, cis-diamminedichloroplatinum]?
**A.** IC50 [1]: 60 ± 7 µM; IC50 (OVCAR-3 (ovarian)): 3.3 ± 0.4 µM; IC50 (PANC-1 (pancreatic)): 6.6 ± 0.7 µM; IC50 (NCI-H460; 72-h incubations performed in triplicate (Table II), read-out: IC50, NCI-H460 (NSCLC)): 1.2 ± 0.2 µM; Fold less potent than the compounds of the invention in H460 cells (NCI-H460; compared with 14a and 14b): at least 20 fold; IC50 (MCF-7 (ER + breast)): 12 ± 2 µM
